Measurements published in article PMC12384454, “Study of the Lipophilicity of Tetracyclic Anticancer Azaphenothiazines” (Biomolecules, 2025).
Entries after “also recorded” stand apart in the source; their conditions may differ. Like-named read-outs stand apart in the source and are kept apart here.

How the values were obtained:
PC3 = test system: PC3; design: method as in earlier work; conditions: cited from earlier work; for IC50: MTT assay; for SI PC3: selectivity index vs HaCaT
HCT-116 cells = conditions: cited from earlier work; for IC50: MTT assay, read-out: IC50 HCT116; for SI HCT116: selectivity index vs HaCaT
A549 cells = conditions: cited from earlier work; for IC50: MTT assay; for SI A549: selectivity index vs HaCaT
HaCaT cells = conditions: cited from earlier work; for IC50: MTT assay, normal cells; for cytotoxic effects on HaCaT cells: in words
MDA = test system: MDA; design: method as in earlier work; conditions: cited from earlier work; for IC50: MTT assay; for SI MDA: selectivity index vs HaCaT
MiaPaCa-2 = test system: MiaPaCa-2; design: method as in earlier work; conditions: cited from earlier work; for IC50: MTT assay; for SI MiaPaCa-2: selectivity index vs HaCaT
[1] = standard for calibration curve; cited from earlier work
[2] = RP-TLC lipophilicity (RM0, log PTLC, C0), silica gel RP-18F254, acetone/TRIS buffer pH 7.4; assay type: physicochemical; conditions: for RM0: RP-TLC, RM extrapolated to 0% acetone, TRIS buffer pH 7.4; for log PTLC / chromatographic logP: from RM0 by calibration curve log PTLC = 1.2862RM0 + 0.2061; for C0: chromatography hydrophobic index, C0 = −RM0/b
Method: In connection with this, in the next stage of the study, the parameters of lipophilicity of the tested compounds were determined experimentally. […] This technique was used to determine the retardation coefficient Rf for each compound in eight mobile phases consisting of acetone and Tris buffer in different volume ratios (50–85% acetone). Next, the Rf values were converted to the chromatographic parameter RM, and then the obtained values were extrapolated to 0% acetone content in the mobile phase obtaining the lipophilicity parameter RM0 (Table S2).
The parameter RM0 can be correlated to an experimental log P lipophilicity parameter of chemical molecules (log PTLC) by applying a calibration curve. The calibration curve was obtained by determining the Rf value for standard substances with a known log Plit value using the RP-TLC method under conditions analogous to those of the tested substances. After calculating the RM and RM0 values, the dependence of the log Plit parameter on the experimentally obtained RM0 values for standards was determined (Table 2).
The chromatographic parameter of lipophilicity was determined by means of Soczewiński–Wachtmeister’s method. […] The acetone ratio was 50 to 85% (v/v) in increments of 5%. The tested compounds in the form of an ethanol solution at a concentration of 2.0 mg/mL each were spotted on chromatographic plates at an amount of 2 µL each. Before analysis, the chromatography chamber (Camag, Switzerland) was saturated with the mobile phase (50 mL) for 30 min. After development at 20 ± 2 °C and subsequent drying, the chromatograms were observed under UV light at 254 nm by using a Camag UV lamp (Muttenz, Switzerland). Each analysis was performed in triplicate. The average value of the retardation factor (Rf) was used to calculate RM using Equation (1):(1) RM=log(1−Rf/Rf)
In addition, the chromatographic parameter of lipophilicity RM0 and b value allowed the determination of the chromatography hydrophobic index C0 by using the following formula:(3) C0=− RM0/b

[3] = test system: standard strains of staphylococci; conditions: cited from earlier work; for antibacterial activity: mainly against standard strains of staphylococci

| SMILES | IC50 (PC3) | SI PC3 (PC3) | IC50 (HCT-116 cells) | SI HCT116 (HCT-116 cells) | IC50 (A549 cells) | SI A549 (A549 cells) | SI A549 (A549 cells; listed as doxorubicin) | IC50 (HaCaT cells) | IC50 (MDA) | SI MDA (MDA) | IC50 (MiaPaCa-2) | SI MiaPaCa-2 (MiaPaCa-2) | log Plit [1] | RM0 [2] | log PTLC [2] | C0 [2] | chromatographic logP [2] | antibacterial activity [3] | cytotoxic effects on HaCaT cells (HaCaT cells) | MIC ([3]; standard strains) |
| --- | --- | --- | --- | --- | --- | --- | --- | --- | --- | --- | --- | --- | --- | --- | --- | --- | --- | --- | --- | --- |
| COc1cccc2c1C(=O)c1c(O)c3c(c(O)c1C2=O)C[C@@](O)(C(=O)CO)C[C@@H]3O[C@H]1C[C@H](N)[C@H](O)[C@H](C)O1 [DX, doxorubicin, reference compound] | 0.8 ± 0.1 µM | 0.15 | 0.59 ± 0.02 µM | 0.5 | 0.6 ± 0.2 µM | 0.14 | 0.14–0.15 | 0.3 ± 0.1 µM | 0.8 ± 0.1 µM | 0.15 | 0.6 ± 0.2 µM | 0.14 |  |  |  |  |  |  |  |  |
| CC(=O)Nc1ccccc1 [acetanilide, reference compound] |  |  |  |  |  |  |  |  |  |  |  |  | 1.21 [35] | 0.78 | 1.21 |  |  |  |  |  |
| c1ccc2cc3ccccc3cc2c1 [anthracene, reference compound] |  |  |  |  |  |  |  |  |  |  |  |  | 4.45 [36] |  |  |  |  |  |  |  |
| O=C(O)c1ccccc1 [benzoic acid, reference compound] |  |  |  |  |  |  |  |  |  |  |  |  |  | 1.16 |  |  |  |  |  |  |
| CCN(CC)CCN1c2cc(Cl)ccc2Sc2cc3ccccc3nc21 [compound 1] |  |  |  |  | 27.2 ± 8.4 µM | 3.7 |  | < 100 µM | < 100 µM | 1.0 |  |  |  | 3.98 |  | 69.58 | 5.33 | moderate antibacterial activity |  |  |
| CN(C)CCCN1c2cc(Cl)ccc2Sc2cc3ccccc3nc21 [compound 2] | 52.1 ± 7.1 µM | 1.2 | 1.6 µM |  | 8.2 µM | 7.6 |  | 62.3 ± 2.5 µM | 52.1 ± 2.7 µM | 1.2 | 40.2 ± 0.7 µM | 1.6 |  | 3.77 | 5.05 | 70.60 |  | moderate antibacterial activity | no cytotoxic effects |  |
| Clc1ccc2c(c1)N(CCN1CCCC1)c1nc3ccccc3cc1S2 [compound 3] | 77.1 ± 9.4 µM | 1.3 | 17.5 ± 1.4 µM | 5.7 | 17.4 ± 4.1 µM | 5.7 |  | < 100 µM | 77.1 ± 1.6 µM | 1.3 | 57.4 ± 9.6 µM | 1.7 |  | 3.96 |  | 73.88 | 5.29 | moderate antibacterial activity |  |  |
| Clc1ccc2c(c1)N(CCN1CCCCC1)c1nc3ccccc3cc1S2 [compound 4] |  |  |  |  | 63.8 ± 8.5 µM | 1.6 |  | < 100 µM | < 100 µM | 1.0 |  |  |  | 4.01 |  | 73.04 | 5.36 |  |  |  |
| CN1CCCCC1CCN1c2cc(Cl)ccc2Sc2cc3ccccc3nc21 (stereo not shown) [compound 5] | 16.7 ± 1.8 µM | 0.7 | 7.7 µM | 1.6 | 16 ± 4.2 µM | 1 |  | 12.7 ± 1.9 µM | 16.7 ± 1.1 µM | 0.9 | 24.3 ± 3.5 µM | 0.5 |  | 4.20 | 5.61 | 84.51 |  |  |  |  |
| O=C1c2ccccc2C(=O)N1CCCN1c2cc(Cl)ccc2Sc2cc3ccccc3nc21 [compound 6] |  |  |  |  |  |  |  |  |  |  |  |  |  | 4.12 |  | 82.90 | 5.5 |  |  |  |
| CC(=O)NCCCN1c2cc(Cl)ccc2Sc2cc3ccccc3nc21 [compound 7] |  |  |  |  | 24.6 ± 6.1 µM | 4.1 |  | < 100 µM | 76.6 ± 8.9 µM | 1.3 |  |  |  | 2.72 |  | 76.19 | 3.7 |  |  |  |
| CCOC(=O)NCCCN1c2cc(Cl)ccc2Sc2cc3ccccc3nc21 [compound 8] |  |  |  |  | 86.6 ± 0.8 µM | 1.1 |  | < 100 µM | < 100 µM | 1.0 |  |  |  | 3.76 | 5.04 | 81.74 |  |  |  |  |
| O=C(NCCCl)NCCCN1c2cc(Cl)ccc2Sc2cc3ccccc3nc21 [compound 9] | 34.8 ± 9.8 µM | 2.8 | 10.4 ± 1.6 µM | 8.8 | 9.3 ± 1.2 µM | 10.7 |  | < 100 µM | 48.6 ± 7.3 µM | 2.0 | 23.2 ± 2.7 µM | 4.3 |  | 3.47 |  | 76.43 | 4.66 | moderate antibacterial activity |  |  |
| CS(=O)(=O)NCCCN1c2cc(Cl)ccc2Sc2cc3ccccc3nc21 [compound 10] |  |  |  |  |  | 1.0 |  | < 100 µM | < 100 µM | 1.0 |  |  |  | 3.37 |  | 76.24 | 4.53 |  |  |  |
| Cc1ccc(S(=O)(=O)NCCCN2c3cc(Cl)ccc3Sc3cc4ccccc4nc32)cc1 [compound 11] |  |  |  |  |  | 1.0 |  | < 100 µM | < 100 µM | 1.0 |  |  |  | 4.59 |  | 79.96 | 6.1 |  |  |  |
| O=C1c2ccccc2C(=O)N1CCCCN1c2cc(Cl)ccc2Sc2cc3ccccc3nc21 [compound 12] |  |  |  |  |  |  |  |  |  |  |  |  |  | 4.41 |  | 85.47 | 5.88 |  |  |  |
| CC(=O)NCCCCN1c2cc(Cl)ccc2Sc2cc3ccccc3nc21 [compound 13] |  |  |  |  | 82.3 ± 6.2 µM | 1.2 |  | < 100 µM | < 100 µM | 1.0 |  |  |  | 3.11 |  | 77.17 | 4.21 |  |  |  |
| CCOC(=O)NCCCCN1c2cc(Cl)ccc2Sc2cc3ccccc3nc21 [compound 14] |  |  |  |  |  | 1.0 |  | < 100 µM | < 100 µM | 1.0 |  |  |  | 4.06 |  | 82.86 | 5.43 |  |  |  |
| O=C(NCCCl)NCCCCN1c2cc(Cl)ccc2Sc2cc3ccccc3nc21 [compound 15] | 76.6 ± 9.8 µM | 0.1 | 11.3 ± 2.2 µM | 0.1 | 6.98 µM |  |  | 1.1 ± 0.3 µM | 7.4 ± 1.2 µM | 0.1 | 6.4 ± 2.4 µM | 0.2 |  | 3.59 |  | 76.22 | 4.82 | moderate antibacterial activity |  | 2 to 8 µg/mL |
| CS(=O)(=O)NCCCCN1c2cc(Cl)ccc2Sc2cc3ccccc3nc21 [compound 16] |  | 1.0 | 0.7 µM | 143 | 30.5 ± 8.3 µM | 3.3 |  | < 100 µM | < 100 µM | 0.2 | 98.4 ± 5.6 µM | 1.0 |  | 3.65 |  | 76.36 | 4.9 |  | no cytotoxic effects; also recorded: lack of toxicity to non-cancer cells |  |
| Cc1ccc(S(=O)(=O)NCCCCN2c3cc(Cl)ccc3Sc3cc4ccccc4nc32)cc1 [compound 17] | 48.6 ± 4.7 µM | 2.0 |  |  | 9.45 µM | 10.5 |  | < 100 µM | < 100 µM | 1.0 |  | 1.0 |  | 4.68 |  | 80.41 | 6.22 |  |  |  |
| CN(C)CCCN1c2ccccc2Sc2ccc(Cl)cc21 [compound 18, chlorpromazine, reference compound] |  |  |  |  |  |  |  |  |  |  |  |  |  | 3.41 |  | 67.79 | 4.59 |  |  |  |
| Clc1ccc(C(c2ccc(Cl)cc2)C(Cl)(Cl)Cl)cc1 [p,p’-DDT, reference compound] |  |  |  |  |  |  |  |  |  |  |  |  | 6.38 [37] | 4.69 | 6.24 |  |  |  |  |  |
